Reference: publication PMC7736581, “Activation of the IRE1 RNase through remodeling of the kinase front pocket by ATP-competitive ligands” (Nature Communications, 2020)
Like-named read-outs stand apart in the source and are kept apart here.

Tests used:
[1] = system: T1, IRE1 (endogenous, KMS-11); assay: cells; set-up: XBP1s mRNA by branched DNA assay in KMS-11 cell lysates after compound treatment; conditions: Homo sapiens, KMS-11, 4 h
T1 construct: endogenous full-length in KMS-11 cells
Protocol: 15-20k KMS-11 cells in RPMI growth media were seeded into 96-well plates and treated with compounds or DMSO control over a period of 4 h the following day. RNA levels of XBP1s and DGAT2 in KMS-11 cell lysates were measured using the QuantiGene 2.0 bDNA assay technology (Thermofisher). See Supplementary Table 4 for sequences of relevant capture probes. Data analysis was carried out against an assay background control with no cell lysate (no-RNA control). In the case of AMG-18, cells were also stimulated with thapsigargin (Tg, 100 nM) 30 min after compound addition. No Tg was used when treating cells with all other compounds. Samples were run in duplicate. To investigate whether this peculiar conformation had any role in the mechanism of activation of G-1749, we evaluated different tails to substitute the ethyl carbamate on the naphthyl moiety (Fig. 3, Supplementary Table 2). […] This is likely due to clashes with residues lining the front pocket, which in turn would force the tails to occupy the back pocket and break the salt bridge, thereby causing RNase inhibition. […] Experiments in KMS-11 cells (Fig. 3b, c, right panels) confirmed the effect of these tail modifications on IRE1 RNase activation. […] The chemical substituents tolerated by the front pocket seem to be very limited: even a minor substitution of the carbamate oxygen atom to a larger [compound left out], from ethyl carbamate to propyl amide (compound 6), or from methyl carbamate to methyl or ethyl amide (compound 4 or 5, respectively), or increasing the tail length by one atom, from ethyl to propyl carbamate (compound 11), is enough to impart a switch from activation to inhibition (Fig. 3b, c). […] RNA cleavage was measured by a kinetic fluorescence assay using an XBP1-like RNA hairpin substrate and IRE1 LKR construct (Q470-L977). Background from the no-protein control was subtracted from signal before calculating fold change. Source data are provided as a Source Data file. Data are presented as the mean for measurements from two independent experiments (n = 2). c RNA levels for IRE1 RNase product XBP1s measured by bDNA assay of lysates from KMS-11 cells treated with compounds for 4 h. Background from the no-RNA control was subtracted from signal before calculating fold change. Source data are provided as a Source Data file. Data are presented as the mean for measurements from two independent experiments (n = 2). d, e Analytical Ultracentrifugation sedimentation velocity (SV-AUC) experiments for (d), IRE1 LKR (Q470-L977) unphosphorylated and autophosphorylated and (e), IRE1 LKR unphosphorylated in the presence of slight excess G-9807 and G-1749. Calculated sedimentation coefficients for IRE1 monomer (3.1 svedbergs) and dimer (4.6 svedbergs) are highlighted by dotted lines. Source data are provided as a Source Data file.

Aurora_B = molecular target: T2, Aurora_B (Homo sapiens, UniProt Q96GD4); assay: biochemical; set-up: Invitrogen kinase panel: Z'Lyte activity (ATP at Km) or LanthaScreen competitive ATP-site binding, percent inhibition
T2 construct: gene AURKB
T2 sequence (Q96GD4 whole entry): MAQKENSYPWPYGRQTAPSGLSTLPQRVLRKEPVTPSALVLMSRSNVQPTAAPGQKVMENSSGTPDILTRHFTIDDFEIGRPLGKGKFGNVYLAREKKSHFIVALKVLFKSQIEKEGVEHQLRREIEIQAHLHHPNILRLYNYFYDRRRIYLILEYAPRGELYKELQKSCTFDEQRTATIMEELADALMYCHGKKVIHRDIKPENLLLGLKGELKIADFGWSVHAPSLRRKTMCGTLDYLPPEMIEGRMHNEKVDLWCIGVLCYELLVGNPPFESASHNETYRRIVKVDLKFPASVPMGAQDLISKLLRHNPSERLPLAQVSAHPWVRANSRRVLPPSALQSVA

Lyn = Lyn (Homo sapiens, UniProt P07948); assay: biochemical; set-up: Invitrogen kinase panel: Z'Lyte activity (ATP at Km) or LanthaScreen competitive ATP-site binding, percent inhibition
Chain of Lyn (P07948 whole entry): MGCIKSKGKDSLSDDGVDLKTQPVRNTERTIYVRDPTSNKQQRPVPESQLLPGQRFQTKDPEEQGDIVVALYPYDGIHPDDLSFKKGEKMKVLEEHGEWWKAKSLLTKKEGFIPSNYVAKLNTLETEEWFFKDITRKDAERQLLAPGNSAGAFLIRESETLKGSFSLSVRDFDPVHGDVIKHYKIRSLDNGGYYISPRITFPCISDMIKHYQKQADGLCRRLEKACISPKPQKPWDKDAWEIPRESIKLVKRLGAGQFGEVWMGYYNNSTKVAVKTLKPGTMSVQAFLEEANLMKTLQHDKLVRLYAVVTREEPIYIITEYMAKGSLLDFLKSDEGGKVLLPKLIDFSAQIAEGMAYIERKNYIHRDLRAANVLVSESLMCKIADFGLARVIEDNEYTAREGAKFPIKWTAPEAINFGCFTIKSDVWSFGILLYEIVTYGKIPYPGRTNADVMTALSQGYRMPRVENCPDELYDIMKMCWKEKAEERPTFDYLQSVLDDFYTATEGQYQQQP

TYK2 = TYK2 (Homo sapiens, UniProt P29597); assay: biochemical; set-up: Invitrogen kinase panel: Z'Lyte activity (ATP at Km) or LanthaScreen competitive ATP-site binding, percent inhibition
Chain of TYK2 (P29597 whole entry): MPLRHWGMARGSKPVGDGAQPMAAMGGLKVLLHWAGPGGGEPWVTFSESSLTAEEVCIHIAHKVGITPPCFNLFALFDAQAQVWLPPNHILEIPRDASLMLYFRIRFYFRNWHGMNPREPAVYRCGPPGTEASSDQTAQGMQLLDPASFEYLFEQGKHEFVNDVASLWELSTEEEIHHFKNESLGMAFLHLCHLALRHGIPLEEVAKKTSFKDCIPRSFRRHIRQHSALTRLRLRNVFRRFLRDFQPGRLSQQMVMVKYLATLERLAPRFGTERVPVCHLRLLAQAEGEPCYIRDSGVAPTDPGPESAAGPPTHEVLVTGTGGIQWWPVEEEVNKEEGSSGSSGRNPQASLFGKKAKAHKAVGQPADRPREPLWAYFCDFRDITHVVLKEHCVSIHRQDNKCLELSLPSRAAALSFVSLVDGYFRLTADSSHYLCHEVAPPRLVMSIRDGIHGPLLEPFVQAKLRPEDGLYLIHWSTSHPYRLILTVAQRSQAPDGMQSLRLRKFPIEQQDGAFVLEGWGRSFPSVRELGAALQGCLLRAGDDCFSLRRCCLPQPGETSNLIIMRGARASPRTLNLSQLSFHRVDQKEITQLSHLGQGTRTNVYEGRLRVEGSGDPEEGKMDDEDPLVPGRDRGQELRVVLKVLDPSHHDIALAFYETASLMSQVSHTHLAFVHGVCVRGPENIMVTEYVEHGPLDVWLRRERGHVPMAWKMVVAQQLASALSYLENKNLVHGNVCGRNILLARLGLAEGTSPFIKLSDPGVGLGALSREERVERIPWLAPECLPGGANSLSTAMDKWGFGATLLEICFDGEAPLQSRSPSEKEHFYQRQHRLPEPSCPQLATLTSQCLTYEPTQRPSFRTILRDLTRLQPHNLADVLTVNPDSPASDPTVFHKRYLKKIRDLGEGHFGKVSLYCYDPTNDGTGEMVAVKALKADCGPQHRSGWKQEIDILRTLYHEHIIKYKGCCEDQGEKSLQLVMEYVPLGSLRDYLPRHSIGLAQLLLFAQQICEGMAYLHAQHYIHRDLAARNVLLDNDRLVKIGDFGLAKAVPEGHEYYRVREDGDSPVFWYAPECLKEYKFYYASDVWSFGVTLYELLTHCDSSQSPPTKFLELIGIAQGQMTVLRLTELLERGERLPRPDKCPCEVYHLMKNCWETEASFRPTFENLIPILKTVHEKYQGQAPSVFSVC

CDK5/p25 = molecular target: T3, CDK5/p25 (Homo sapiens, UniProt Q00535); assay: biochemical; set-up: Invitrogen kinase panel: Z'Lyte activity (ATP at Km) or LanthaScreen competitive ATP-site binding, percent inhibition
T3 construct: p25
T3 sequence (Q00535 whole entry): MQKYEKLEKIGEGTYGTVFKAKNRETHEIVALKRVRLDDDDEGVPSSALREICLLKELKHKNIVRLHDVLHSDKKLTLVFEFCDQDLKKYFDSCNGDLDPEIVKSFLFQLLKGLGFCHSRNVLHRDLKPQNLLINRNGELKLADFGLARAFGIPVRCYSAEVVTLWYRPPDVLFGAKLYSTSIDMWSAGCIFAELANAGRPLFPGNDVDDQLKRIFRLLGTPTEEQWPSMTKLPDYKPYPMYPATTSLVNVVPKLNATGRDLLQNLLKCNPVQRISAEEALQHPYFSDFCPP
T3 sequence (Q15078 whole entry partner): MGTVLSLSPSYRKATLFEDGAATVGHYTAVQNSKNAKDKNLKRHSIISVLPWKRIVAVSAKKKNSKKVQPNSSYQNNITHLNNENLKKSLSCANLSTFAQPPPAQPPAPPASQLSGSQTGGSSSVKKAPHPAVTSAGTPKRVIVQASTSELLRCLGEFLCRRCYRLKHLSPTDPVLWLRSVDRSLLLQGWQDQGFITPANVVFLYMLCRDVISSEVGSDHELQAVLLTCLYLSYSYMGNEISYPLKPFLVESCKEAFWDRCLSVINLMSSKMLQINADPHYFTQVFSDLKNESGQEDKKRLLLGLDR

SLK = SLK (Homo sapiens, UniProt Q9H2G2); assay: biochemical; set-up: Invitrogen kinase panel: Z'Lyte activity (ATP at Km) or LanthaScreen competitive ATP-site binding, percent inhibition
Chain of SLK (Q9H2G2 whole entry): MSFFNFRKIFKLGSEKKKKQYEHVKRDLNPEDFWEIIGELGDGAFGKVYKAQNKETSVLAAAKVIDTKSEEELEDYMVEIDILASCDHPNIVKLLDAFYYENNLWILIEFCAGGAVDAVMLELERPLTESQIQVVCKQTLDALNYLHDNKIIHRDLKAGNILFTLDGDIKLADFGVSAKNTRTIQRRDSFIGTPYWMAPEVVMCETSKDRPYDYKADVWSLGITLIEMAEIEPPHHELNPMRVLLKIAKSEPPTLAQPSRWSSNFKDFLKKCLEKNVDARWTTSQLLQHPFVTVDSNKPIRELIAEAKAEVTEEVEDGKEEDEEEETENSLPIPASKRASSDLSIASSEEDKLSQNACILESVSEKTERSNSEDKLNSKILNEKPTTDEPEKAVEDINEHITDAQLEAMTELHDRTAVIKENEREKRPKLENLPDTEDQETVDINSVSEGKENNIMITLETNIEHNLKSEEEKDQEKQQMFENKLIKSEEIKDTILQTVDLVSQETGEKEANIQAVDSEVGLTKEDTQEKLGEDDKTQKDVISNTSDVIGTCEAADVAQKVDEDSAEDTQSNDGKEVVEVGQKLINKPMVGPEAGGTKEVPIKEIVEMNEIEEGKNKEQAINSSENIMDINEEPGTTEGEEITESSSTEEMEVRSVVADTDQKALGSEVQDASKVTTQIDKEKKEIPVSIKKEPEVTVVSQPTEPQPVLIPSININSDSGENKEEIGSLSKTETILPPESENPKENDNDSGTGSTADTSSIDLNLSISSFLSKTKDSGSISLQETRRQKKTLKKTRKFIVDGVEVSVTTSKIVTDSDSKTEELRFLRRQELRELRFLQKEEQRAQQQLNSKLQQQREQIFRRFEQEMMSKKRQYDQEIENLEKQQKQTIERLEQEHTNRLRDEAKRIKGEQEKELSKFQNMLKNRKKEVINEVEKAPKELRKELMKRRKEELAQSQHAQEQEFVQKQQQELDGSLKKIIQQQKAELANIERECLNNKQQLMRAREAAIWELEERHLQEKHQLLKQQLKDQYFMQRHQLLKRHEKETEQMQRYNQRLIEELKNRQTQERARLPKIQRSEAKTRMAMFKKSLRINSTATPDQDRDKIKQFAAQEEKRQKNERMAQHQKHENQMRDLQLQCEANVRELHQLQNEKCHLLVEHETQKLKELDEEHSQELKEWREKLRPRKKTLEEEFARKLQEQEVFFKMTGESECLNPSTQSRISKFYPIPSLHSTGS

PKA = molecular target: T4, PKA (Homo sapiens, UniProt P17612); assay: biochemical; set-up: Invitrogen kinase panel: Z'Lyte activity (ATP at Km) or LanthaScreen competitive ATP-site binding, percent inhibition
T4 construct: gene PRKACA

ROCK1 = ROCK1 (Homo sapiens, UniProt Q13464); assay: biochemical; set-up: Invitrogen kinase panel: Z'Lyte activity (ATP at Km) or LanthaScreen competitive ATP-site binding, percent inhibition
Tie2 = molecular target: T5, Tie2 (Homo sapiens, UniProt Q02763); assay: biochemical; set-up: Invitrogen kinase panel: Z'Lyte activity (ATP at Km) or LanthaScreen competitive ATP-site binding, percent inhibition
T5 construct: gene TEK

FGFR1 = FGFR1 (Homo sapiens, UniProt P11362); assay: biochemical; set-up: Invitrogen kinase panel: Z'Lyte activity (ATP at Km) or LanthaScreen competitive ATP-site binding, percent inhibition
Chain of FGFR1 (P11362 whole entry): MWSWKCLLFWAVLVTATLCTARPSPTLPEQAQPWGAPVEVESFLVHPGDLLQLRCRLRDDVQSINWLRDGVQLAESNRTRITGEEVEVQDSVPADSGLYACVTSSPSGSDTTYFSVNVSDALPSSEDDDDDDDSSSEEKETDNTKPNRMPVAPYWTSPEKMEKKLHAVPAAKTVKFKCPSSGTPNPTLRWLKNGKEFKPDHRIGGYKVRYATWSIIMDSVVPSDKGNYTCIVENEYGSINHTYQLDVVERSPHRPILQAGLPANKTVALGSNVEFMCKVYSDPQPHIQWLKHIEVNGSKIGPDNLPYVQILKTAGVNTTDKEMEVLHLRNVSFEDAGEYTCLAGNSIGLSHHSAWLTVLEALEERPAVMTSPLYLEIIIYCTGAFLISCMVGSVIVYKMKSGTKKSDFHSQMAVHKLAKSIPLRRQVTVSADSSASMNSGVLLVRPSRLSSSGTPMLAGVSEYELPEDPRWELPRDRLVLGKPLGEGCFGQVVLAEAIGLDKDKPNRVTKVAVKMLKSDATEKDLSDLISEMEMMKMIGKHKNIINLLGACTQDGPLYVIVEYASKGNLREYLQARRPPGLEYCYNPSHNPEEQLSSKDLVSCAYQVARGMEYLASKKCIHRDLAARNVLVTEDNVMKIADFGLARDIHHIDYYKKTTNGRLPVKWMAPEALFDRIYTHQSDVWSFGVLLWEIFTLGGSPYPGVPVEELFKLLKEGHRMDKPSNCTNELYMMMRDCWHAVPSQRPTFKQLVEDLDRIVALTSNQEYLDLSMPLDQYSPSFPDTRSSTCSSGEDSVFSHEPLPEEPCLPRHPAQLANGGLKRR

Yes = molecular target: T6, Yes (Homo sapiens, UniProt P07947); assay: biochemical; set-up: Invitrogen kinase panel: Z'Lyte activity (ATP at Km) or LanthaScreen competitive ATP-site binding, percent inhibition
T6 construct: gene YES1

[2] = XBP1s mRNA increase, read-out: EC50 (KMS-11 bDNA assay, XBP1s), activators

SMILES | EC50 ([1]; 100 nM thapsigargin stimulation, XBP1s mRNA decrease, read-out: EC50 (KMS-11 bDNA assay, XBP1s), inhibitors) | inhibition at 1 µM (Aurora_B) | inhibition at 1 µM (Lyn) | inhibition at 1 µM (TYK2) | inhibition at 1 µM (CDK5/p25) | inhibition at 1 µM (SLK) | inhibition at 1 µM (PKA) | inhibition at 1 µM (ROCK1) | inhibition at 1 µM (Tie2) | inhibition at 1 µM (FGFR1) | inhibition at 1 µM (Yes) | EC50 [1, 2]
Cc1ccc2c(NS(=O)(=O)c3ccccc3Cl)cccc2c1Oc1ncccc1-c1ccnc(N[C@H]2CCCNC2)n1 [AMG-18] | 193 ± 36 nM | – | – | – | – | – | – | – | – | – | – | –
CCOC(=O)Nc1cccc2c(Oc3ncccc3-c3ccnc(N[C@H]4CCCNC4)n3)c(C)ccc12 [G-1749] | – | 2.5% | 6.5% | -3% | 3.5% | 10% | -9% | 3.5% | 26% | 14% | 7.5% | 1310 ± 168 nM
CC#CC(=O)Nc1cccc2c(Oc3ncccc3-c3ccnc(N[C@H]4CCCNC4)n3)c(C)ccc12 [G-7658] | – | 2% | 13% | -2% | 4% | 1.5% | -8% | 0.5% | 12.5% | 13% | 8% | 223 ± 33 nM
O=c1cc(-c2n[nH]c3ncc(-c4c(F)cccc4F)cc23)nc(N2CCC(O)CC2)[nH]1 [G-9807] | – | 82.2% | 87.1% | 84.5% | 100% | 96.9% | 43% | 94.6% | 95.9% | 83.8% | 52.4% | 1770 ± 691 nM
